Among the data in ChEMBL document CHEMBL1130626, “MEK inhibitors: the chemistry and biological activity of U0126, its analogs, and cyclization products” (Bioorg Med Chem Lett, 1998) are IC50 and inhibition values, retold here.

Test [1] deals with Dual specificity mitogen-activated protein kinase kinase; MEK1/2 (Homo sapiens, UniProt P36507+Q02750). The test can be described thus: Ability to antagonise AP-1 transcriptional activity. It counts as functional.
The target in test [2] is T1, Dual specificity mitogen-activated protein kinase kinase 1 (Homo sapiens, UniProt Q02750).
T1 sequence (Q02750 whole entry): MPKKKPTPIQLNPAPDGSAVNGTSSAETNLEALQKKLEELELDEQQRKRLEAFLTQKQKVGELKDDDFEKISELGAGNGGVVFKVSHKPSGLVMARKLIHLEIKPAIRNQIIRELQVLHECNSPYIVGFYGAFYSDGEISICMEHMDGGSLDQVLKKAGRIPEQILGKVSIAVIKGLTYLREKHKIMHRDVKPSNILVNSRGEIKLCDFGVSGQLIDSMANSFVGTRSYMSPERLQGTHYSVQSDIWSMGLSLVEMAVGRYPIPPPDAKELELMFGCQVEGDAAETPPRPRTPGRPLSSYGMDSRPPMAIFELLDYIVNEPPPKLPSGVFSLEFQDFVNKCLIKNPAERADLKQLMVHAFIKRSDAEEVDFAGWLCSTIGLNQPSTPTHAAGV
Test [3] deals with T1, Dual specificity mitogen-activated protein kinase kinase 1. Description: Non-competitive inhibition of the dual specificity kinase MEK at the concentration 10 uM.
For test [4] the target is unchanged. Description: Inhibition of the dual specificity kinase MEK-1 (Inactive).

Structures are written as SMILES.

`N#CC(=C(/N)Sc1ccccc1F)/C(C#N)=C(\N)Sc1ccccc1F`: the results for the IC50 in test [1] and in test [2] were 7600 nM and 900 nM, respectively.
The compound `N#CC(=C(/N)Sc1cccc(C(F)(F)F)c1)/C(C#N)=C(\N)Sc1cccc(C(F)(F)F)c1` yielded an inhibition in test [3] of 32%.
On to `N#CC(=C(/N)Sc1ccccc1[N+](=O)[O-])/C(C#N)=C(\N)Sc1ccccc1[N+](=O)[O-]`, for which the inhibition in test [3] worked out at 41%.
`N#CC(=C(/N)Sc1ccccc1-c1ccccc1)/C(C#N)=C(\N)Sc1ccccc1-c1ccccc1` had an inhibition in test [3] of 8.7%.
As to `CN1/C(=C(C#N)\C(C#N)=C2\Sc3ccccc3N2C)Sc2ccccc21`, the half-maximal inhibitory concentration (IC50) result in test [4] is recorded as “Not Active”.
For the compound `N#Cc1c(NS(=O)(=O)c2ccccc2)[nH]c(Sc2ccc3ccccc3c2)c1C#N`, the half-inhibitory concentration (IC50) in test [1] worked out at 8000 nM; in test [2], 1900 nM.
In the case of `N#CC(=C(/N)Sc1ccccc1CO)/C(C#N)=C(\N)Sc1ccccc1CO`, the inhibition in test [3] is 51%.
Turning to `N#CC(=C(/N)Sc1ccc(-c2ccccc2)cc1)/C(C#N)=C(\N)Sc1ccc(-c2ccccc2)cc1`, the inhibition in test [3] amounted to 34%.
Compound `COc1ccc(OC)c(S/C(N)=C(C#N)/C(C#N)=C(\N)Sc2cc(OC)ccc2OC)c1` returned an inhibition in test [3] of 18%.
Regarding `N#CC(=C1/Nc2ccccc2S1)/C(C#N)=C1\Nc2ccccc2S1`, the half-inhibitory concentration (IC50) worked out at 42500 nM in test [1] and 700 nM in test [2].
Regarding `N#CC(=C(/N)Sc1ccc2ccccc2c1)/C(C#N)=C(\N)Sc1ccc2ccccc2c1`, the inhibition in test [3] was 54%.
Regarding `CC(=O)Nc1ccccc1Sc1c(C#N)c(C#N)c2sc3ccccc3n12`, the IC50 result in test [4] is listed as “Not Active”.
Regarding `N#CC(=C(/N)Sc1ccc(Cl)cc1)/C(C#N)=C(\N)Sc1ccc(Cl)cc1`, the IC50 in test [1] came to 21700 nM; in test [2], 2100 nM.
For `N#CC(=C(/N)Sc1ccccc1Br)/C(C#N)=C(\N)Sc1ccccc1Br`, the values for the IC50 in test [1] and in test [2] were 7900 nM and 1100 nM, respectively.
The corresponding values for `Cc1ccccc1S/C(N)=C(C#N)/C(C#N)=C(\N)Sc1ccccc1C` are 13300 nM and 2000 nM.
For the compound `CS/C(N)=C(C#N)/C(C#N)=C(\N)SC`, the inhibition in test [3] is 24%.
Still for that read-out and setting: then `N#CC(=C(/N)SCCO)/C(C#N)=C(\N)SCCO`, with 0%.
Consider `N#CC(=C(/N)Sc1cccs1)/C(C#N)=C(\N)Sc1cccs1`, for which the IC50 stood at 1200 nM in test [1] and 300 nM in test [2].
Regarding `COc1ccccc1S/C(N)=C(C#N)/C(C#N)=C(\N)Sc1ccccc1OC`, the IC50 in test [1] was 16500 nM; in test [2] it was 4500 nM.
In the case of `N#CC(=C(/N)Sc1ccc(C(F)(F)F)cc1)/C(C#N)=C(\N)Sc1ccc(C(F)(F)F)cc1`, the inhibition in test [3] stood at 33%.
In test [3], `N#CC(=C(/N)Sc1cccc2ccccc12)/C(C#N)=C(\N)Sc1cccc2ccccc12` returned an inhibition of 26%.
For the compound `N#CC(=C(/N)Sc1ccccc1O)/C(C#N)=C(\N)Sc1ccccc1O`, the IC50 turned out to be 400 nM in test [1] and 300 nM in test [2].
`N#CC(=C(/N)Sc1cc(I)ccc1N)/C(C#N)=C(\N)Sc1cc(I)ccc1N` returned an inhibition in test [3] of 34.8%.
Compound `CNc1ccccc1S/C(N)=C(C#N)/C(C#N)=C(\N)Sc1ccccc1NC` registered an inhibition in test [3] of 19.1%.
As to `N#CC(=C(/N)Sc1ccccc1Cl)/C(C#N)=C(\N)Sc1ccccc1Cl`, the IC50 was 6600 nM in test [1] and 900 nM in test [2].
Compound `N#CC(=C(/N)Sc1ccc(O)cc1)/C(C#N)=C(\N)Sc1ccc(O)cc1` showed an IC50 in test [2] of 400 nM.
With `N#Cc1c(Sc2ccc3ccccc3c2)[nH]c(Sc2ccc3ccccc3c2)c1C#N`, the figures for the IC50 in test [1] and in test [2] were 28900 nM and 2100 nM, respectively.
Regarding `N#CC(=C(/N)Sc1cccc(Cl)c1)/C(C#N)=C(\N)Sc1cccc(Cl)c1`, the figures for the IC50 in test [1] and in test [2] were 18400 nM and 1900 nM, respectively.
In the same order, the values of `N#CC(=C(/N)Sc1ccccc1N)/C(C#N)=C1\Nc2ccccc2S1` are 18700 nM and 3200 nM.
In test [3], `CC(=O)Nc1ccc(S/C(N)=C(C#N)/C(C#N)=C(\N)Sc2ccc(NC(C)=O)cc2)cc1` had an inhibition of 0%.
In test [3], `N#CC(=C(/N)Sc1cccc(-c2ccccc2)c1)/C(C#N)=C(\N)Sc1cccc(-c2ccccc2)c1` returned an inhibition of 54.6%.
As to `N#CC(=C(/N)Sc1c(Cl)cccc1Cl)/C(C#N)=C(\N)Sc1c(Cl)cccc1Cl`, the IC50 in test [1] is 6500 nM; in test [2], 2800 nM.
As for `N#Cc1c(N)[nH]c(Sc2ccc3ccccc3c2)c1C#N`, the IC50 in test [1] came out at 25100 nM; in test [2], 1400 nM.
As for `COc1ccc(S/C(N)=C(C#N)/C(C#N)=C(\N)Sc2ccc(OC)c(OC)c2)cc1OC`, in test [3], the inhibition worked out at 0%.
For the compound `N#CC(=C(/N)Sc1ccccc1)/C(C#N)=C(\N)Sc1ccccc1`, the IC50 turned out to be 12200 nM in test [1] and 900 nM in test [2].
As to `N#Cc1c(C#N)c2sc3ccccc3n2c1Sc1ccccc1N`, the IC50 entry in test [4] is listed as “Not Active”.
Regarding `N#CC(=C(/N)Sc1c(F)c(F)c(F)c(F)c1F)/C(C#N)=C(\N)Sc1c(F)c(F)c(F)c(F)c1F`, the inhibition in test [3] came out at 17%.
In test [2], `N#CC(=C(/N)Sc1ccc2ccccc2c1N)/C(C#N)=C(\N)Sc1ccc2ccccc2c1N` gave an IC50 of 2100 nM.
As for `CCc1ccccc1S/C(N)=C(C#N)/C(C#N)=C(\N)Sc1ccccc1CC`, in test [3], the inhibition was 18%.
`N#Cc1c(N)[nH]c(Sc2ccccc2N)c1C#N`: the results for the half-maximal inhibitory concentration (IC50) in test [1] and in test [2] were 26200 nM and 13500 nM, respectively.

The IC50 is the concentration that gives 50% inhibition. Lower therefore signals higher potency. The inhibition is how much of the control response was suppressed. Low readings indicate a weak effect, high ones a strong effect.
